Source: patent US8809270B2, “Method for reducing cardiovascular morbidity and mortality in prediaetic patients and patients with type 2 diabetes” (priority 2003, dated 2014)
“Also recorded” adds a separate entry of the source.

What was measured:
[1] = tested on: type 2 diabetic patients already treated with other oral antidiabetic drugs; assay: Study 4014: lipid data, LANTUS versus rosiglitazone; format: in vivo, human; design: Triglycerides % reduction from baseline / Triglycerides % reduction from baseline, LANTUS-AVANDIA / Non-HDL Cholesterol Total % reduction from baseline: concentration or dose not given beside the values; Triglycerides Baseline / Triglycerides Endpoint: unit not given beside the values; settings: for Triglycerides % reduction from baseline, LANTUS-AVANDIA / Triglycerides change at endpoint, LANTUS-AVANDIA: LANTUS minus AVANDIA
[2] = tested on: individuals with IGT, IFG, or mild untreated type 2 diabetes; assay: Study HOE901/1021: blood glucose response to 15-minute stationary bicycle exercise; design: species or system human; settings: in vivo
Procedure: The study was conducted at three centers in the US. After screening tests, including fasting plasma glucose (FPG) and post prandial plasma glucose (PPG; two hours following a 75 g oral glucose load) for classification as IGT, IFG, diabetic, or normal glucose tolerance (NGT), and after satisfying other inclusion criteria including the ability to perform moderate exercise on a stationary bicycle, subjects were admitted to an inpatient study center. They were confined there for the next 15 days, during which time they were randomly assigned to receive either HOE901 once per day subcutaneously in the evening, or matching placebo (saline) injections in a 3:1 randomization (HOE901:placebo). Baseline assessments included a 5-point (before each meal, bedtime, and 3 AM) and 8-point (5-point plus readings 2 hours after each meal) blood glucose profile on separate days, and 15 minutes of exercise on a stationary bicycle at a level of exertion of “somewhat hard” on the Borg scale with blood glucose values monitored during and for 3 hours following the exercise. Each subject received a 25 kCal/kg diet while confined in the study center. Capillary whole blood glucose values were recorded on HemoCue devices. Episodes of hypoglycemia (blood glucose 50 mg/dL [2.8 mM] or symptoms with blood glucose 65 mg/dL [3.6 mM]) were recorded. […]

[3] = tested on: people with impaired glucose tolerance (IGT) or impaired fasting glucose (IFG), mild type 2 diabetes; assay: Study HOE901/1021: fasting and 8-point blood glucose profiles, bedtime dose titration; format: in vivo, human
Excerpt: Study HOE901/1021 was a randomized, single-blind (pharmacist-unblinded), inpatient, dose-titration study designed to examine the safety and efficacy of HOE901 given once a day subcutaneously at bedtime in a novel population: people with impaired glucose tolerance (IGT) or impaired fasting glucose (IFG). It was conceived as a pilot study for a large international trial of HOE901 in a dysglycemic population of IGT, IFG, and early type 2 diabetes in order to investigate dosing in the prediabetic (IFG/IGT) population for the first time. Of special interest was the incidence of hypoglycemia during the study.
The study was conducted at three centers in the US. After screening tests, including fasting plasma glucose (FPG) and post prandial plasma glucose (PPG; two hours following a 75 g oral glucose load) for classification as IGT, IFG, diabetic, or normal glucose tolerance (NGT), and after satisfying other inclusion criteria including the ability to perform moderate exercise on a stationary bicycle, subjects were admitted to an inpatient study center. They were confined there for the next 15 days, during which time they were randomly assigned to receive either HOE901 once per day subcutaneously in the evening, or matching placebo (saline) injections in a 3:1 randomization (HOE901:placebo). Baseline assessments included a 5-point (before each meal, bedtime, and 3 AM) and 8-point (5-point plus readings 2 hours after each meal) blood glucose profile on separate days, and 15 minutes of exercise on a stationary bicycle at a level of exertion of “somewhat hard” on the Borg scale with blood glucose values monitored during and for 3 hours following the exercise. Each subject received a 25 kCal/kg diet while confined in the study center. Capillary whole blood glucose values were recorded on HemoCue devices. Episodes of hypoglycemia (blood glucose 50 mg/dL [2.8 mM] or symptoms with blood glucose 65 mg/dL [3.6 mM]) were recorded.
Once randomized, subjects' bedtime doses of study drug were titrated to achieve a fasting blood glucose (FBG) of 80-95 mg/dL [4.4 mM-5.3 mM]. Dose increases were based on FBG values and were performed every 2 days. Subjects remained at the site until the end of the confinement period, regardless of when target FBG levels were achieved. Five-point blood glucose profiles were performed every other day, with 8-point blood glucose profiles performed on alternate days. At endpoint all baseline procedures, including an 8-point blood glucose profile, and an exercise assessment, were repeated.

[4] = tested on: US/Canada type 2 diabetic patients; assay: Treat-to-Target study: hypoglycemia, bedtime LANTUS vs. NPH insulin; format: in vivo, human; settings: single bedtime dose
Procedure: The ideal basal insulin might be expected to be less worrisome from this standpoint because the circulating insulin produced would target blood glucose elevations throughout the day rather than mealtime fluctuations. […] The “Treat-to-Target” study ^38 in US/Canada type 2 diabetic patients investigated whether a single bedtime dose of Lantus® LANTUS (insulin glargine) vs. NPH insulin (a moderate- to long-acting insulin with a pronounced peak in plasma activity for 4 to 8 hours after injection)^39 would achieve target metabolic control without increasing nocturnal hypoglycemia.
Insulin has features that make it especially useful in the patient with pronounced diabetic dyslipidemia, as compared to the oral antidiabetic agents usually used as initial pharmacotherapy. […] NPH insulin despite having a prolonged duration of action, has a pronounced peak effect from 3-6 hours after injection, rendering it less suitable in the management of the patient with milder diabetes due to the risk for hypoglycemia.

insulin glargine [LANTUS]
HDL Baseline ([1]; TG baseline range 200-500): 38 | HDL Endpoint ([1]; TG baseline range 200-500): 40 | LDL Baseline ([1]; TG baseline range 200-500): 115 | LDL Endpoint ([1]; TG baseline range 200-500): 111 | Non-HDL Cholesterol Total Baseline ([1]; TG baseline range 200-500): 168 | Non-HDL Cholesterol Total Endpoint ([1]; TG baseline range 200-500): 152 | Triglycerides % reduction from baseline ([1]; TG baseline range 200-500): 18% | Triglycerides Baseline ([1]; TG baseline range 200-500): 285 | Triglycerides Endpoint ([1]; TG baseline range 200-500): 234 | Triglycerides % reduction from baseline, LANTUS-AVANDIA ([1]; TG baseline range 200-500): 18% | Triglycerides change at endpoint, LANTUS-AVANDIA ([1]; TG baseline range 200-500): 47.7 | HDL Baseline ([1]; TG baseline range 300-500): 32 | HDL Endpoint ([1]; TG baseline range 300-500): 34 | Non-HDL Cholesterol Total % reduction from baseline ([1]; TG baseline range 300-500): 4% | Non-HDL Cholesterol Total Baseline ([1]; TG baseline range 300-500): 156 | Non-HDL Cholesterol Total Endpoint ([1]; TG baseline range 300-500): 150 | Triglycerides % reduction from baseline ([1]; TG baseline range 300-500): 27% | Triglycerides Baseline ([1]; TG baseline range 300-500): 380 | Triglycerides Endpoint ([1]; TG baseline range 300-500): 277 | Triglycerides % reduction from baseline, LANTUS-AVANDIA ([1]; TG baseline range 300-500): 18% | Triglycerides change at endpoint, LANTUS-AVANDIA ([1]; TG baseline range 300-500): 68.5 | HDL Baseline ([1]; TG baseline range 500-1000): 28 | HDL Endpoint ([1]; TG baseline range 500-1000): 29 | Non-HDL Cholesterol Total Baseline ([1]; TG baseline range 500-1000): 178 | Non-HDL Cholesterol Total Endpoint ([1]; TG baseline range 500-1000): 153 | Triglycerides Baseline ([1]; TG baseline range 500-1000): 817 | Triglycerides Endpoint ([1]; TG baseline range 500-1000): 494 | hypoglycemic events during exercise [2]: no hypoglycemic events | Mean FBG ([3]; Day 12 (endpoint)): 85.6 mg/dL | Mean FBG ([3]; Day −1 (baseline)): 98.1 mg/dL | reduction in mean daylong blood glucose ([3]; Day −1 to Day 12): 8.8 mg/dL | subjects who had reached an FPG of 100 mg/dL ([3]; by Day 12): All but 2 | subjects who had reached the FBG target of 95 mg/dL or less ([3]; by Day 12): all but 4 | hypoglycemia vs. NPH [4]: significant reductions in nocturnal hypoglycemia; also recorded: significant advantages over NPH in hypoglycemia
